Data: patent publication US8772292B2, “Process for the preparation of a medicament comprising vardenafil hydrochloride trihydrate” (Ratiopharm GmbH, priority 2007, dated 2014)
Where a name gives a salt, the structure may show the parent alone.

Assay: Raman spectra after processing steps (hydrate stability in tablets)
Format: physicochemical
Procedure: Vardenafil hydrochloride trihydrate and anhydrate can be identified and distinguished from one another e.g. by means of Raman spectroscopy.
Raman spectra were recorded after the processing steps of precompacting, subsequent mixing, pressing and coating (FIGS. 1 and 2). For this, the film was scratched off from the film-coated tablets beforehand. The Raman spectra of the pure vardenafil hydrochloride trihydrate and of the anhydrate are also shown for comparison.
In the relevant range of 1694-1702 cm^−1, the auxiliaries used in Example 1 had no influence on the vardenafil bands (measurement on a placebo tablet is not also shown).

stability of the hydrate under the processing conditions (Example 4: coating at intake air temperature of 60-65° C.): dehydrated | stability of the hydrate under the processing conditions (Examples 1 to 3: approx. 23° C., 33-35% rel. humidity, coating intake air 45° C.): stable
SMILES: CCCc1nc(C)c2c(=O)[nH]c(-c3cc(S(=O)(=O)N4CCN(CC)CC4)ccc3OCC)nn12 [Vardenafil hydrochloride trihydrate, {2-ethoxy-5-[(4-ethyl-1-piperazinyl)sulfonyl]phenyl}-5-methyl-7-propylimidazo-[5,1-f][1,2,4]triazin-4(3H)one]
